# According to PMC5783810 (Saudi Pharmaceutical Journal : SPJ, 2017):
# Test: Water solubility
# Conditions: for fold increase in water solubility relative to trolox: relative to trolox (0.1 g/L); for solubility at 10 min: water, thermodynamic from solid
Compound,fold increase in water solubility relative to trolox,solubility at 10 min [µg/mL]
"6-Hydroxy-2,5,7,8-tetramethylchromane-2-carboxylate, 1-(1H-indol-3-yl)-N,N-dimetilmetanammonium [2q]",20–590 fold,–
"6-Hydroxy-2,5,7,8-tetramethylchromane-2-carboxylate 1-oxyl-2,2,5,5-tetramethylpirrolidin-4-ammonium [2h]",20 fold,–
"Cc1c(C)c2c(c(C)c1O)CCC(C)(C(=O)O)O2 (centres unmarked) [compound 1, 6-hydroxy-2,5,7,8-tetra methyl chromane-2-carboxylic acid, reference compound]",–,100
"CCN(CC)CC.Cc1c(C)c2c(c(C)c1O)CCC(C)(C(=O)O)O2 (centres unmarked) [2n, 6-Hydroxy-2,5,7,8-tetramethylchromane-2-carboxylate, triethylammonium]",–,3000
"Cc1c(C)c2c(c(C)c1O)CCC(C)(C(=O)O)O2.O=c1cccc2n1CC1CNCC2C1 (stereo not drawn) [2l, 6-Hydroxy-2,5,7,8-tetramethylchromane-2-carboxylate, 1,2,3,4,5,6-hexahydro-1,5-methano-8H-pyridinium-[1,2-α][1,5]-diazotsin-8-one]",20–590 fold,–
"6-Hydroxy-2,5,7,8-tetramethylchromane-2-carboxylate, 4-(N-acetylantranoiloxy)-8,9-dihydroxy-1α,14α,16β-trimethoxy-N-ethylammonium-18-norakonan [2p]",20–590 fold,–
"6-Hydroxy-2,5,7,8-tetramethylchromane-2-carboxylate, 3-(3,4-dimethoxybenzoate)-8-ammoniybicyclo[3.2.1]octane [2m]",20–590 fold,–
"6-Hydroxy-2,5,7,8-tetramethylchromane-2-carboxylate 1-oxyl-2,2,6,6-tetramethylpiperidine-4-ammonium [2g]",10 fold,–
